Patent publication US4663326A, “Pyrazolo[4,3-d]pyrimidine-5,7-(4H,6H)dione or -5-thione-7-one analogs” (Warner-Lambert Company, priority 1985, dated 1987)

Assays:
[1] = target: T1, adenosine receptors (designated A1) (Rattus norvegicus, UniProt P25099); experiment: Adenosine receptor binding - A1 receptor affinity (RBA1), [3H]-CHA displacement, rat whole brain minus cerebellum and brainstem membranes; design: species or system rat (male Long Evans); details: 1.0 nM [3H]-CHA, 25° C., pH 7.7; repeat tests (Test 1-4) one line each; read-out: RBA-1 (IC50, adenosine A1 affinity)
T1 construct: Whole brain minus cerebellum and brainstem from male Long Evans rats (150-200 g); from tissue; host or cells: whole brain minus cerebellum and brainstem, male Long Evans rats, membranes
T1 sequence (P25099 1-326): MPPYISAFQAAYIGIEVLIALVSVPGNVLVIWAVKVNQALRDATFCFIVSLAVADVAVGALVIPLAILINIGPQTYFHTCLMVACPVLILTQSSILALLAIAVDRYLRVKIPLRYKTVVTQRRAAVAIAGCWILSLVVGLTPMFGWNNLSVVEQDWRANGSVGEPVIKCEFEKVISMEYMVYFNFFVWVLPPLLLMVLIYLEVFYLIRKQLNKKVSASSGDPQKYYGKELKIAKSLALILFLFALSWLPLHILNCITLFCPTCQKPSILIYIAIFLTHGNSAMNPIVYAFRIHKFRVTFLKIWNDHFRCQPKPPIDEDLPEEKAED
Experimental: ADENOSINE RECEPTOR BINDING-A1 RECEPTOR AFFINITY (RBA1)
Whole brain minus cerebellum and brainstem from male Long Evans rats (150-200 g) was homogenized in 30 volumes of ice-cold 0.05M Tris-HCl buffer pH 7.7 using a Brinkman Polytron PT-10, (setting number 6 for 20 seconds) and centrifuged for ten minutes at 20,000×g (Sorvall RC-2), 4° C. The supernatant was discarded, and the pellet was resuspended and centrifuged as before. The pellet was resuspended in 20 ml Tris-HCl buffer containing two International Units/ml of adenosine deaminase (Sigma type III from calf intestinal mucosa), incubated at 37° C. for 30 minutes, then subsequently at 0° C. for ten minutes. The homogenate was again centrifuged, and the final pellet was resuspended in ice-cold 0.05M Tris-HCl buffer pH 7.7 to a concentration of 20 mg/ml original wet tissue weight and used immediately.
Tissue homogenate (10 mg/ml) was incubated in 0.05M Tris-HCl buffer pH 7.7 containing 1.0 nM [^3 H]-N^6 -cyclohexyladenosine (^3 H]-CHA) with or without test agents in triplicate for one hour at 25° C. Incubation volume was 2 ml. Unbound [^3 H]-CHA was separated by rapid filtration under reduced pressure through Whatman glass fiber (GF/B) filters. The filters were rinsed three times with 5 ml of ice cold 0.05M Tris-HCl buffer pH 7.7. The radio-labeled ligand retained on the filter was measured by liquid scintillation spectrophotometry after shaking the filters for one hour or longer on a mechanical shaker in 10 ml of Beckman Ready-Solv HP scintillation cocktail.
Nonspecific binding was defined as the binding which occurred in the presence of 1 mM theophylline. The concentration of test agent which inhibited 50% of the specific binding (IC50) was determined by nonlinear computer curve fit. The Scatchard plot was calculated by linear regression of the line obtained by plotting the amount of radioligand bound ([…]) versus [bound radioligand/free radioligand].Since the amount of radioligand bound was a small fraction of the total amount added, free radioligand was defined as the concentration (nM) of radioligand added to the incubation mixture. The Hill coefficient was calculated by linear regression of the line obtained by plotting the log of the bound radioligand vs the log of the [bound radioligand/(Bmax -bound radioligand)]. The maximal number of binding sites (Bmax) was calculated from the Scatchard plot.

Type 3 Phosphodiesterase = experiment: PDE inhibition, Type 3 phosphodiesterase, smooth muscle (bovine coronary arteries); assay type: biochemical; details: 1 × 10^-5 M
From the text: The method of Thompson, et al (Thompson, W. J., Terasaki, W. L., Epstein, P. M., Strada, S. J., Adv. Cyclic Nucleotide Res., 10:69-92, 1979), with minor modifications, was used to isolate phosphodiesterases from vascular smooth muscle. Bovine coronary arteries (right, anterior descending, and left circumflex arteries) from hearts obtained from a local slaughterhouse were used for these studies. Arteries from two hearts were used for each isolation. Hearts were kept on ice and the arteries were dissected within two hours after the animals were sacrificed. After removing all fat and connective tissue, the arteries were everted, cut into cubes with a single edge razor blade and homogenized with a Brinkman Polytron three times at a rheostat setting of 10.0 in four volumes of the PDE isolation buffer (10 mM Tris-HCl/pH 7.5, 2 mM MgCl2, and 1 mM dithiothreitol). The resulting homogenate was sonicated (30 sec/ml homogenate) and then centrifuged at 30,000×g for 20 minutes. This and all subsequent procedures were performed at 4° C. […]
Phosphodiesterase activity was measured as described previously (Weishaar, P. E., Quade, M., Boyd, D., Schenden, J., Mark, S. S., Kaplan, H. R., Drug Devel. Res., 3:517-534, 1983), in a reaction medium containing 40 mM Tris-HCl (pH 8.0), 5 mM MgCl and 4 mM 2-mercaptoethanol. […]

Compound: Cc1nn(C)c2c(=O)[nH]c(=O)[nH]c12 [Example 1, 1,3-Dimethylpyrazolo[4,3-d]pyrimidine-5,7-(4H, 6H)dione]
- IC50 [1]: 11 µM
- % Inhibition of 3H-cAMP Hydrolysis, Type 3 Phosphodiesterase (Type 3 Phosphodiesterase): N (0-20% inhibition at 1 × 10^-5 M)

Compound: CCn1nc(C)c2[nH]c(=S)[nH]c(=O)c21 [Example 2, 1-Ethyl-1,4,5,6-tetrahydro-3-methyl-pyrazolo[4,3-d]pyrimidine-5-thione-7-on]
- IC50 [1]: 19.3 µM
- % Inhibition of 3H-cAMP Hydrolysis, Type 3 Phosphodiesterase (Type 3 Phosphodiesterase): B (36-55% inhibition at 1 × 10^-5 M)
